Values after ≈ are worked out from the molar mass of the structure shown. Read-outs that look alike come from different tables or passages of the source.
Experiments:
E. coli (ATCC 10798) = test: Sensitization to erythromycin or novobiocin (outer membrane permeabilization, FIC); type: cell-based, Escherichia coli; details: for MBC: Escherichia coli; for MBC / concentration required to lower the MIC of erythromycin from 70 µg/mL to 1 µg/mL: E. coli (ATCC 10798); for concentration required to lower the MIC of erythromycin from 70 µg/mL to 1 µg/mL: Table 2
Outline: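 E. coli in TSB received cholic acid derivatives, then erythromycin or novobiocin 15 minutes later, in checkerboard titration, stationary at 37°C for 24 hours. Turbidity was read at 760 nm; clear samples were subcultured on TSA for CFU/mL versus inoculum. FIC = sum of MIC-in-combination/MIC-alone ratios for compound and antibiotic.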

[1] = test system: Escherichia coli ATCC 25922; test: MIC and MBC measurement; type: cell-based; details: Escherichia coli; for MIC: read-out: MIC
Outline: (§1)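 Tube dilution in tryptic soy broth with compounds dissolved in water as HCl salts; stationary incubation 37°C for 24 hours, MIC from turbidity at 760 nm. MBC from subculture of non-turbid samples on TSA plates, CFU/mL compared with the original inoculum.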

[2] = test system: Staphylococcus aureus ATCC 25923; test: MIC and MBC measurement; type: cell-based; details: ATCC25923, Table 10, Staphylococcus aureus ATCC 25923; for MIC: read-out: MIC
Outline: as §1

[3] = test system: Pseudomonas aeruginosa ATCC 27853; test: Sensitization to erythromycin, novobiocin or rifampicin (permeabilization, FIC); type: cell-based; details: for MBC: Pseudomonas aeruginosa; for MBC / concentration required to lower the MIC of erythromycin from 240 µg/mL to 5 µg/mL: Table 7, with erythromycin; for MBC / concentration required to lower the MIC of erythromycin from 240 µg/mL to 5 µg/mL / concentration required to lower the MIC of novobiocin from >500 µg/mL to 1 µg/mL: P. aureginosa (ATCC 27853); for concentration required to lower the MIC of novobiocin from >500 µg/mL to 1 µg/mL: Table 8, with novobiocin
[4] = test system: Salmonella typhimurium ATCC 14028; test: as above; type: cell-based
[5] = test system: Klebsiella pneumonia ATCC 13883; test: as above; type: cell-based, Klebsiella pneumoniae
[6] = Minimum hemolytic concentration (MHC); type: cell-based; details: Table 10
Protocol: Minimum inhibition concentrations (MIC) and minimum hemolytic concentrations (MHC) were measured as described in Li et al., Antimicrob. Agents. Chemother., 1999, 43, 1347. […]

[7] = test system: Escherichia coli ATCC 25922; details: ATCC25922
Protocol: (§2) FICs can be performed by checkerboard titrations of compounds in one dimension of a microtiter plate, and of antibiotics in the other dimension, for example. The FIC is calculated by looking at the impact of one antibiotic on the MIC of the other and vice versa. […] As used herein, FIC can be determined as follows: FIC = (MIC(compound in combination))/(MIC(compound alone)) + (MIC(antibiotic in combination))/(MIC(antibiotic alone)) [formula]
(§3) Aliquots of 1 mL of the suspension were added to test tubes containing 1 mL TSB and incrementally varied concentrations of cholic acid derivatives and/or erythromycin or novobiocin. […] Additionally, an alliquot from each of the samples showing no measurable turbidity was subcultured on TSA plates (alliquots were diluted to provide fewer than 300 CFU). Colonies that grew on the subculture after overnight incubation were counted and the number of CFU/mL in the samples were calculated. The calculated values were compared to the number of CFU/mL in the original inoculum.
(§4) Concentrations of 0.5, 1.0 or 3.0 µg/mL of these antibiotics were used, and the concentrations of the cholic acid derivatives required to inhibit bacterial growth of Gram-negative strains were determined.

[8] = test system: Escherichia coli ATCC 25922; test: Sensitization to erythromycin, novobiocin or rifampicin (permeabilization, FIC); details: for MBC: Escherichia coli, ATCC25922; for concentration required to lower the MIC of erythromycin from 60 µg/mL to 1 µg/mL: Table 5, E. coli (ATCC 25922), with erythromycin; for FIC / concentration required for bacterial growth inhibition: Table 13, with rifampicin (order of b151), Escherichia coli ATCC 25922
Protocol: as §2, §3, §4

[9] = ATCC10798, Table 2, with erythromycin
[10] = ATCC10798, Table 3, with novobiocin
[11] = ATCC25922, Table 4, E. coli (ATCC 25922)
[12] = ATCC25922, Table 10, Escherichia coli ATCC 25922
[13] = Table 12, with novobiocin (order of b151), Pseudomonas aeruginosa ATCC 27853
[14] = Table 13, with rifampicin (order of b151), Pseudomonas aeruginosa ATCC 27853^b (footnote b not given)
[15] = Table 11, with erythromycin (order of b151)
[16] = Table 12, with novobiocin (order of b151)
[17] = Table 12, with novobiocin (order of b151), Klebsiella pneumonia ATCC 13883
[18] = Table 13, with rifampicin (order of b151), Klebsiella pneumonia ATCC 13883
[19] = Table 9, Escherichia coli (ATCC 10798)

| SMILES | MBC (E. coli (ATCC 10798); [9]) [µg/mL] | MBC (E. coli (ATCC 10798); [10]) [µg/mL] | concentration required to lower the MIC of erythromycin from 70 µg/mL to 1 µg/mL (E. coli (ATCC 10798); with erythromycin) [µg/mL] | MBC [1, 11] [µg/mL] | MIC [1, 11] [µg/mL] | MBC [1, 12] [µg/mL] | MIC [1, 12] [µg/mL] | MBC [2] [µg/mL] | MIC [2] [µg/mL] | FIC ([3]; ATCC27853) | concentration required for bacterial growth inhibition ([3]; ATCC27853) [µg/mL] | MBC ([3]; ATCC27853) [µg/mL] | concentration required to lower the MIC of erythromycin from 240 µg/mL to 5 µg/mL [3] [µg/mL] | concentration required to lower the MIC of novobiocin from >500 µg/mL to 1 µg/mL [3] [µg/mL] | concentration required for bacterial growth inhibition [3, 13] [µg/mL] | FIC [4, 15] | concentration required for bacterial growth inhibition [4, 15] [µg/mL] | FIC ([5]; ATCC13883) | concentration required for bacterial growth inhibition ([5]; ATCC13883) [µg/mL] | MHC [6] [µg/mL] | other results |
| --- | --- | --- | --- | --- | --- | --- | --- | --- | --- | --- | --- | --- | --- | --- | --- | --- | --- | --- | --- | --- | --- |
| C[C@H](CCCN(C)Cc1ccccc1)[C@H]1CC[C@H]2[C@@H]3[C@H](OCCN)C[C@@H]4C[C@H](OCCN)CC[C@]4(C)[C@H]3C[C@H](OCCN)[C@]12C [Compound 1] | 20 | 34 | 2 | 40 (≈ 63.8 µM) | 25 (≈ 39.9 µM) | 22 (≈ 35.1 µM) | 22 (≈ 35.1 µM) | 5.7 (≈ 9.09 µM) | 3.1 (≈ 4.94 µM) | 0.29 | 6.6 | 45 | 8 | 6 | 3.9 | 0.19 | 3.6 | 0.072 | 1.0 | 78 | FIC [3, 14]: 0.096; FIC [4, 16]: 0.22; concentration required for bacterial growth inhibition [4, 16]: 4.4 µg/mL; concentration required for bacterial growth inhibition [5, 17]: 4.7 µg/mL; FIC [5, 18]: 0.043; concentration required for bacterial growth inhibition [5, 18]: 0.40 µg/mL; concentration required for bacterial growth inhibition [7]: 0.35 µg/mL; MBC [8]: 14 µg/mL; concentration required to lower the MIC of erythromycin from 60 µg/mL to 1 µg/mL [8]: 2 µg/mL; FIC [8]: 0.099; concentration required for bacterial growth inhibition [8]: 0.74 µg/mL |
| C[C@H](CCCN(C)Cc1ccccc1)[C@H]1CC[C@H]2[C@@H]3[C@H](OCCCNC(=N)N)C[C@@H]4C[C@H](OCCCNC(=N)N)CC[C@]4(C)[C@H]3C[C@H](OCCCNC(=N)N)[C@]12C [Compound 5] | 3 | 4 | 1 | 4 (≈ 5.03 µM) | 2 (≈ 2.52 µM) | 3.8 (≈ 4.78 µM) | 1.4 (≈ 1.76 µM) | 3.2 (≈ 4.02 µM) | 0.6 (≈ 0.755 µM) | 0.42 | 2.3 | 10 | 3 | 6 | – | 0.23 | 0.46 | 0.080 | 0.15 | 26 | FIC [7]: 0.31; MBC [8]: 1.5 µg/mL; concentration required to lower the MIC of erythromycin from 60 µg/mL to 1 µg/mL [8]: 1.5 µg/mL |
| C[C@H](CCCN(C)Cc1ccccc1)[C@H]1CC[C@H]2[C@@H]3[C@H](OCCCN)C[C@@H]4C[C@H](OCCCN)CC[C@]4(C)[C@H]3C[C@H](OCCCN)[C@]12C [Compound 2] | 10 | 16 | 1 | 20 (≈ 29.9 µM) | 10 (≈ 14.9 µM) | 6.8 (≈ 10.2 µM) | 5.1 (≈ 7.62 µM) | 4.7 (≈ 7.02 µM) | 1 (≈ 1.49 µM) | 0.25 | 2.4 | 25 | 4 | 4 | 2.9 | 0.17 | 2.0 | 0.048 | 0.25 | 58 | FIC [3, 14]: 0.086; FIC [4, 16]: 0.36; concentration required for bacterial growth inhibition [4, 16]: 4.5 µg/mL; concentration required for bacterial growth inhibition [5, 17]: 0.49 µg/mL; FIC [5, 18]: 0.035; concentration required for bacterial growth inhibition [5, 18]: 0.12 µg/mL; concentration required for bacterial growth inhibition [7]: 0.33 µg/mL; MBC [8]: 5 µg/mL; concentration required to lower the MIC of erythromycin from 60 µg/mL to 1 µg/mL [8]: 1 µg/mL; FIC [8]: 0.22; concentration required for bacterial growth inhibition [8]: 0.80 µg/mL |
| C[C@H](CCCO)[C@H]1CC[C@H]2[C@@H]3[C@H](OCCCN)C[C@@H]4C[C@H](OCCCN)CC[C@]4(C)[C@H]3C[C@H](OCCCN)[C@]12C [Compound 10] | 50 | – | 2 | – | – | 40 (≈ 70.7 µM) | 36 (≈ 63.6 µM) | 9.2 (≈ 16.3 µM) | 2 (≈ 3.53 µM) | 0.13 | 2.1 | – | 7 | – | 5.3 | 0.037 | 0.87 | 0.035 | 0.21 | 100 | (a) Concentration required to lower the MIC of erythromycin from 70 to 1 µg/mL (E. coli (ATCC 10798); [19]): 2.0 µg/mL; (b) MBC with 1 µg/mL erythromycin (E. coli (ATCC 10798); [19]): 50 µg/mL; (d) Concentration required to lower the MIC of novobiocin from >500 to 1 µg/mL (E. coli (ATCC 10798); [19]): 4.0 µg/mL; FIC^c (FIC values with erythromycin) (E. coli (ATCC 10798); [19]): 0.070; FIC^c (FIC values with novobiocin) (E. coli (ATCC 10798); [19]): 0.11; FIC [3, 14]: 0.083; FIC [4, 16]: 0.052; concentration required for bacterial growth inhibition [4, 16]: 1.8 µg/mL; concentration required for bacterial growth inhibition [5, 17]: 0.73 µg/mL; FIC [5, 18]: 0.030; concentration required for bacterial growth inhibition [5, 18]: 0.16 µg/mL; concentration required for bacterial growth inhibition [7]: 0.30 µg/mL; FIC [8]: 0.085; concentration required for bacterial growth inhibition [8]: 0.70 µg/mL |

From patent EP1311531B1, “STEROID DERIVED ANTIBIOTICS” (Brigham Young University, priority 2000, dated 2002)
